# Data reported in article PMC10179080, “In Vivo and In Vitro Characterization of Close Analogs of Compound KA-11, a New Antiseizure Drug Candidate” (International Journal of Molecular Sciences, 2023).
# Columns and labels:
# [1] = system: neuromuscular strength in mice; assay: Grip strength test; type: in vivo
# Experimental: The experiments were conducted on adult male albino Swiss mice weighing 22–26 g. The animals were kept in colony cages under standardized laboratory conditions: natural light–dark cycle 12/12 h, temperature 20–24 °C, air humidity 45–65% and free access to tap water and food (chow pellets). After 7 days of adaptation to laboratory conditions, the animals were randomly assigned to experimental groups consisting of 8 mice. The experimental procedures described herein were approved by the Local Ethics Committee in Lublin, Poland (approval numbers: 71/2020 and 13/2021), and were conducted in accordance with EU Directive 2010/63/EU for animal experiments. All efforts were made to minimize animal suffering and to use only the number of animals necessary to produce reliable scientific data according to the 3Rs rule. The grip strength test was carried out according to the methodology described by Socała et al.. Neuromuscular strength was measured just before the ivPTZ seizure threshold test to limit the number of animals used. The ED50 or TD50 values for tested substances in the acute animal models of seizures were calculated using the computer log-probit analysis. Subsequently, the ED50 and TD50 values (±SEM) were statistically analyzed using one-way analysis of variance (ANOVA) followed by the post hoc Dunnett’s test for multiple comparisons. Differences among values were considered statistically significant if p < 0.05. GraphPad Prism version 8 for Windows (GraphPad Software, San Diego, CA, USA) was used as a statistical software program. The results obtained from the acute ivPTZ test and grip strength test were evaluated by a Student’s t test. Fisher’s exact probability test was used to analyze protection from tonic forelimb and hindlimb extension in the ivPTZ test. Figure 8 Effects of KA-228 and KA-232 on neuromuscular strength in mice. KA-228 and KA-232 were administered i.p., 30 min before the test. Control animals received vehicle. […] The statistical significance was evaluated using the Student’s t test: * p < 0.05 vs. the vehicle-treated group (GraphPad Prism 8).
# Potassium channel (hERG) = target: T1, Potassium channel (hERG) (Homo sapiens, UniProt Q12809); assay: Radioligand binding, potassium channel (hERG); conditions: 100 µM; KA-11 value not published before
# T1 construct: host or cells: HEK-293 cells
# T1 sequence (Q12809 whole entry): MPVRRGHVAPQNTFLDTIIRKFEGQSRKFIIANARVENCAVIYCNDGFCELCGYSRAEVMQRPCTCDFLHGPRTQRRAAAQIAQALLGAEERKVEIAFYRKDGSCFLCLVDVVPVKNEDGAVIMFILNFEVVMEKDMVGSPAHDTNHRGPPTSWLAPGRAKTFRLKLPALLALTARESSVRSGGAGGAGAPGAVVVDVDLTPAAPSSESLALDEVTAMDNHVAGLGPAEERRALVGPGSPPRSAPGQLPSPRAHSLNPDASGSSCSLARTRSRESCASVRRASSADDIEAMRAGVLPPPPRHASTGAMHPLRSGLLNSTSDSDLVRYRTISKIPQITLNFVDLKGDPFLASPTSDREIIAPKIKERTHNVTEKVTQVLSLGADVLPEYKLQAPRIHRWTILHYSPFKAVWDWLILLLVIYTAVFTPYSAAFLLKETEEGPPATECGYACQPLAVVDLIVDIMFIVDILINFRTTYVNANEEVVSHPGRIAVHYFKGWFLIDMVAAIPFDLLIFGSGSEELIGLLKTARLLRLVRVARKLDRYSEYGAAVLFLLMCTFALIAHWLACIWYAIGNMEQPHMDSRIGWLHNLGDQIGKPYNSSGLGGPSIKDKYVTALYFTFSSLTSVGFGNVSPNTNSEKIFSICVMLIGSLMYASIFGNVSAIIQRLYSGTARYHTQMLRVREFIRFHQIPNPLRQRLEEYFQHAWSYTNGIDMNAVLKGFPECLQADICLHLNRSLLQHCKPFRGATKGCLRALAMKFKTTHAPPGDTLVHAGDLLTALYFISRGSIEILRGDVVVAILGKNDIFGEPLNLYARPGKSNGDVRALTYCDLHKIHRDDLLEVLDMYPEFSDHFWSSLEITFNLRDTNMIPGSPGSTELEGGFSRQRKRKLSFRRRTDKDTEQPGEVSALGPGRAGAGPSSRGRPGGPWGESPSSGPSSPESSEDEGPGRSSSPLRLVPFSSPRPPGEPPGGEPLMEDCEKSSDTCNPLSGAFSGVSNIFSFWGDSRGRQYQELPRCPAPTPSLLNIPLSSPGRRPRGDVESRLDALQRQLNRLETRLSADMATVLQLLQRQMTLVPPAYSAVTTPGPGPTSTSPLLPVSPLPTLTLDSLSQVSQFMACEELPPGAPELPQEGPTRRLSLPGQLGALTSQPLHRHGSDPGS
# Experimental: (§1) Dysfunction of both sodium and calcium ion channels is known to be one of the crucial reasons behind the pathogenesis of seizures. Consequently, these ion channels are molecular targets for several clinically important ASDs such as lacosamide, lamotrigine, carbamazepine, oxcarbazepine and compounds currently under preclinical and clinical studies. Thus, for KA-228 and KA-232, we tested herein their binding profile toward the aforementioned ion channels at concentrations of 10 and 100 µM (Table 3). […] Apart from in vitro studies focused on explaining the mechanism of action, KA-232 was additionally tested for its interaction with the potassium channel (hERG) which is recognized as one of the most important ‘off-targets’ responsible for harmful arrhythmogenic activity. Thus, the interaction of potential drug candidates with hERG must be excluded at an early stage of development.
# (§2) Binding studies were carried out commercially in Eurofins Laboratories (Poitiers, France or New Taipei City, Taiwan).
# hERG potassium channel = target: T2, hERG potassium channel (Homo sapiens, UniProt Q12809); assay: Radioligand binding, potassium channel (hERG); conditions: human, human recombinant HEK-293 cells expressing hERG, KA-11 value not published before, read-out: % Inhibition of Control Specific Binding
# T2 construct: host or cells: HEK-293 cells
# T2 sequence (Q12809 whole entry): as above
# Experimental: as §1, §2
compound,measurement,setting,value
"CC(C(=O)N1CCN(c2cccc(C(F)(F)F)c2)CC1)N1C(=O)CC(N(C)C)C1=O.Cl (stereo not shown) [KA-232, 3-(Dimethylamino)-1-(1-oxo-1-(4-(3-(trifluoromethyl)phenyl)piperazin-1-yl)propan-2-yl)pyrrolidine-2,5-dione hydrochloride]",effect on neuromuscular strength (grip strength),"[1]; 50 mg/kg i.p., 30 min before test",did not produce any significant effects
same,effect on neuromuscular strength (grip strength),"[1]; 100 mg/kg i.p., p < 0.05",slightly decreased
same,% Inhibition of Control Specific Binding,Potassium channel (hERG),did not interact
same,"inhibition at 60 min, 100 µM",hERG potassium channel,18.3%
